Experimental data from ChEMBL document CHEMBL2434851, “Squaric acid/4-aminoquinoline conjugates: novel potent antiplasmodial agents” (Eur J Med Chem, 2013).

Experiments:
HEK-293T = test: Cytotoxicity against HEK293T cells assessed as cell viability after 48 hrs by MTT assay; format: cell-based; conditions: Homo sapiens
NIH3T3 = test: Cytotoxicity against mouse NIH/3T3 cells assessed as cell viability after 48 hrs by MTT assay; format: cell-based; conditions: NIH3T3, 48 h
Papain = target: T1, Papain (Carica papaya, UniProt P00784); test: Inhibition of papaya papain using Z-Leu-Leu-Arg-AMC as substrate after 30 mins by fluorescence microplate reader analysis
T1 sequence (P00784 whole entry): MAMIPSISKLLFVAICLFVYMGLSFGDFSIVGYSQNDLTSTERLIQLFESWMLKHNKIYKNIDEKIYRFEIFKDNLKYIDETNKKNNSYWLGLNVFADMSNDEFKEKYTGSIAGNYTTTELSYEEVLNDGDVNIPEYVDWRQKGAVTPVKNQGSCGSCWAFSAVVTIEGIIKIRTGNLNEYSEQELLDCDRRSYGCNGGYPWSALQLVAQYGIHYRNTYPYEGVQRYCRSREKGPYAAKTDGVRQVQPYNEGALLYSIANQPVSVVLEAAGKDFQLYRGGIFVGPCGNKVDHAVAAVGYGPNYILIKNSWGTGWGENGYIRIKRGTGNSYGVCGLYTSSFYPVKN

in vitro = conditions: human
Description: Selectivity index, ratio of IC50 for HEK293T cells to IC50 for ring stage of Plasmodium falciparum W2 infected in human RBC

Plasmodium falciparum = test: microbe, parasite or virus in culture; conditions: W2, 48 h
Description: Antiplasmodial activity against ring stage of chloroquine-resistant Plasmodium falciparum W2 infected in human RBC after 48 hrs by flow cytometric analysis

[1] = Inhibition of Plasmodium falciparum falcipain-2 using Z-Leu-Arg-AMC as substrate preincubated for 10 mins followed by substrate addition by spectrofluorometric analysis

Row | Compound | IC50 (HEK-293T) | IC50 (NIH3T3) | IC50 (Papain) | selectivity ratio (in vitro) | IC50 (Plasmodium falciparum) | IC50 [1]
1 | O=c1c(NCCNc2ccnc3cc(Cl)ccc23)c(NCCNc2ccnc3cc(Cl)ccc23)c1=O | 5 µM | 4.5 µM | > 10 µM | 25 | 0.2 µM | 
2 | CCCCOc1c(N2CCN(c3ccnc4cc(Cl)ccc34)CC2)c(=O)c1=O | > 50 µM | > 50 µM | > 10 µM | > 6 | 7.82 µM | 
3 | CCCCOc1c(OCCCC)c(=O)c1=O [SQUARIC ACID DIBUTYL ESTER] |  |  |  |  | 8.84 µM | 
4 | O=c1c(N2CCC(Nc3ccnc4cc(Cl)ccc34)CC2)c(N2CCC(Nc3ccnc4cc(Cl)ccc34)CC2)c1=O | > 50 µM | > 50 µM |  | > 476 | 0.105 µM | 
5 | CCN(CC)CCCC(C)Nc1ccnc2cc(Cl)ccc12 (stereo not drawn) [CHLOROQUINE] | > 50 µM | > 50 µM |  |  |  | 
6 | CCCCOc1c(N2CCC(Nc3ccnc4cc(Cl)ccc34)CC2)c(=O)c1=O | 37.9 µM | 45.7 µM |  | 8 | 4.71 µM | 
7 | COc1c(NCCCNc2ccnc3cc(Cl)ccc23)c(=O)c1=O | > 50 µM | > 50 µM | > 10 µM | > 27 | 1.84 µM | 
8 | O=c1c(NCCCCNc2ccnc3cc(Cl)ccc23)c(NCCCCNc2ccnc3cc(Cl)ccc23)c1=O | > 50 µM | > 50 µM | > 10 µM | > 526 | 0.095 µM | 
9 | CCCCOc1c(NCCNc2ccnc3cc(Cl)ccc23)c(=O)c1=O | > 50 µM | > 50 µM | > 10 µM | > 24 | 2.04 µM | > 10 µM
10 | O=c1c(NCCCNc2ccnc3cc(Cl)ccc23)c(NCCCNc2ccnc3cc(Cl)ccc23)c1=O | > 50 µM | > 50 µM | > 10 µM | > 505 | 0.099 µM | 
11 | CC(C)C[C@H](NC(=O)[C@H]1O[C@@H]1C(=O)O)C(=O)NCCCCN=C(N)N [E-64] |  |  | 0.007 µM |  |  | 0.06 µM
12 | CCCCOc1c(NCCCNc2ccnc3cc(Cl)ccc23)c(=O)c1=O |  |  | > 10 µM |  | > 10 µM | > 10 µM
13 | COc1c(NCCNc2ccnc3cc(Cl)ccc23)c(=O)c1=O | > 50 µM | > 50 µM | > 10 µM | > 32 | 1.56 µM | > 10 µM
14 | O=C(NCCNc1ccnc2cc(Cl)ccc12)[C@H](Cc1ccccc1)Nc1c(N[C@@H](Cc2ccccc2)C(=O)NCCNc2ccnc3cc(Cl)ccc23)c(=O)c1=O | > 50 µM | > 50 µM | > 10 µM | > 70 | 0.71 µM | > 50 µM
15 | COc1cc(NC(C)CCCNc2c(NCCCC(C)Nc3cc(OC)cc4cccnc34)c(=O)c2=O)c2ncccc2c1 (stereo not drawn) | > 50 µM | > 50 µM |  | > 22 | 2.21 µM | 
16 | CCCCOc1c(NCCCC(C)Nc2cc(OC)cc3cccnc23)c(=O)c1=O (stereo not drawn) | > 50 µM | > 50 µM | > 10 µM | > 2 | 18.6 µM | 
